Consider 12 compounds from patent US20260022142A1, “MACROCYCLIC IMMUNOMODULATORS” (Bristol-Myers Squibb Company, priority 2022, published 2026).

pIC50: −log10 of the molar value. Bridge positions count the residues as written; N and C are the ends. Square brackets hold non-standard residues; d marks the D form. Peptide text beside a SMILES is read from it. * marks the point of attachment. ξ: configuration not given here. Phe(3,4,5-F3) = N[C@@H](Cc1cc(F)c(F)c(F)c1)C(=O)O; Phe(4-COOH) = N[C@@H](Cc1ccc(C(=O)O)cc1)C(=O)O; Bip = N[C@@H](Cc1ccc(-c2ccccc2)cc1)C(=O)O; Phe(3-Me) = Cc1cccc(C[C@H](N)C(=O)O)c1; Cyclopropanecarbonyl = O=C(C1CC1)*; Val(3-OH) = CC(C)(O)[C@H](N)C(=O)O; hArg = N=C(N)NCCCC[C@H](N)C(=O)O; 4Pal = N[C@@H](Cc1ccncc1)C(=O)O; 2Thi = N[C@@H](Cc1cccs1)C(=O)O; Cha = N[C@@H](CC1CCCCC1)C(=O)O; Cit = NC(=O)NCCC[C@H](N)C(=O)O; Thr(3ξ) = CC(O)[C@H](N)C(=O)O; Tle = CC(C)(C)[C@H](N)C(=O)O; ξH = NC(Cc1c[nH]cn1)C(=O)O; Carboxymethyl = O=C(O)C*; Orn = NCCC[C@H](N)C(=O)O; Pra = C#CC[C@H](N)C(=O)O; Aun = NCCCCCCCCCCC(=O)O; Dab = NCC[C@H](N)C(=O)O; Dap = NC[C@H](N)C(=O)O; AEEA = NCCOCCOCC(=O)O

T1 sequence (Q15116 25-288): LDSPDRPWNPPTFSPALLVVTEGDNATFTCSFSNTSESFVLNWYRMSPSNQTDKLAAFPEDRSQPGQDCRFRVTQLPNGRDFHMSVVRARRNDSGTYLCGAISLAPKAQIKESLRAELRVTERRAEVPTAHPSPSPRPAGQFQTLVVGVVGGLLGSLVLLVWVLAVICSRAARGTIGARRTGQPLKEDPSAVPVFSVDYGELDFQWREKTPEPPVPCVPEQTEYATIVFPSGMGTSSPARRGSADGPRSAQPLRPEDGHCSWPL

This assay has as its target T1, PD-1/PD-L1 interaction (PE-labeled human PD-L1-Ig binding to Jurkat cell line over-expressing human PD-1) (Homo sapiens, UniProt Q15116).
T1 construct: expressed in transfected cells; host or cells: Jurkat
In words: Jurkat-PD-1 Cell Binding High-Content Screening Assay (CBA). The format is cell-based. The following applies: Jurkat cell line over-expressing human PD-1; PE-labeled PD-L1-Ig 20 nM final; read-out: Jurkat hPD1-PDL1 IC50. The method, boiled down:
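Jurkat-hPD-1 cells, DMEM/10% FCS; cpd 2 h 37° C; PE-PD-L1-Ig 20 nM final, 1 h; 4% PFA fix + Hoechst 33342, 3× dPBS wash; high-content imaging read-out.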
With `Cc1cccc(C[C@@H]2NC(=O)[C@H](CC(=O)O)NC(=O)[C@H](Cc3ccc(OCC(=O)O)cc3)NC(=O)[C@H](CN)NC(=O)CSC[C@@H](C(=O)N[C@@H](CCN)C(=O)NCCOCCOCC(=O)NCCCCCCCCCCC(=O)O)NC(=O)[C@H](CCCN)NC(=O)[C@H](C(C)C)NC(=O)[C@H](CC3CCCCC3)NC(=O)[C@H](CCN)NC(=O)[C@@H](CC(C)C)NC(=O)[C@H](CCCN)NC(=O)[C@H](Cc3ccc(O)cc3)NC(=O)[C@H](Cc3ccc(-c4ccccc4)cc3)NC(=O)[C@H](Cc3ccc(O)cc3)NC2=O)c1` [Compound 2576] ({CH2CO}-[Dap]Y(Carboxymethyl)D[Phe(3-Me)]Y[Bip]Y[Orn][dL][Dab][Cha]V[Orn]C[Dab][AEEA][Aun]-OH; thioether N-14), the pIC50 (in general, the negative decadic logarithm of the IC50, by convention in mol/L) was 7.98.

Turning to `Cc1cccc(C[C@@H]2NC(=O)[C@H](CC(=O)O)NC(=O)[C@H](Cc3ccc(OCC(=O)O)cc3)NC(=O)[C@H](CN)NC(=O)CSC[C@@H](C(=O)N[C@@H](CCN)C(=O)NCCCCCCCCCCC(=O)O)NC(=O)[C@H](Cc3ccncc3)NC(=O)[C@H](C(C)C)NC(=O)[C@H](CC(C)C)NC(=O)[C@H](CCN)NC(=O)[C@@H](CC(C)C)NC(=O)[C@H](CCCN)NC(=O)[C@H](Cc3ccc(O)cc3)NC(=O)[C@H](Cc3ccc(-c4ccccc4)cc3)NC(=O)[C@H](C(C)C)NC2=O)c1` [Compound 2767] ({CH2CO}-[Dap]Y(Carboxymethyl)D[Phe(3-Me)]V[Bip]Y[Orn][dL][Dab]LV[4Pal]C[Dab][Aun]-OH; thioether N-14), the pIC50 is 7.37. Next, `Cc1cccc(C[C@@H]2NC(=O)[C@H](CC(=O)O)NC(=O)[C@H](Cc3ccc(OCC(=O)O)cc3)NC(=O)[C@H](CN)NC(=O)CSC[C@@H](C(=O)N[C@@H](CCN)C(=O)NCCCCCCCCCCC(=O)O)NC(=O)[C@H](CO)NC(=O)[C@H](C(C)C)NC(=O)[C@H](CC3CCCCC3)NC(=O)[C@H](CCN)NC(=O)[C@@H](CC(C)C)NC(=O)[C@H](CCCN)NC(=O)[C@H](Cc3ccc(O)cc3)NC(=O)[C@H](Cc3ccc(-c4ccccc4)cc3)NC(=O)[C@H](C(C)C)NC2=O)c1` [Compound 2718] ({CH2CO}-[Dap]Y(Carboxymethyl)D[Phe(3-Me)]V[Bip]Y[Orn][dL][Dab][Cha]VSC[Dab][Aun]-OH; thioether N-14): 7.50.

With `CC(C)C[C@H]1NC(=O)[C@H](CCCN)NC(=O)[C@H](C(C)C)NC(=O)[C@H](Cc2ccc(-c3ccccc3)cc2)NC(=O)[C@H](C(C)C)NC(=O)[C@H](Cc2c[nH]c3ccccc23)NC(=O)[C@H](CC(=O)O)NC(=O)[C@H](Cc2ccc(OCC(=O)O)cc2)NC(=O)[C@H](CCCNC(=N)N)NC(=O)CSC[C@@H](C(=O)N[C@@H](CCN)C(=O)NCCCCCCCCCCC(=O)O)NC(=O)[C@H](CCCN)NC(=O)[C@H](C(C)C)NC(=O)[C@H](CC2CCCCC2)NC(=O)[C@H](CCN)NC1=O` [Compound 3289] ({CH2CO}-RY(Carboxymethyl)DWV[Bip]V[Orn][dL][Dab][Cha]V[Orn]C[Dab][Aun]-OH; thioether N-14), the pIC50 was 7.89.

Regarding `Cc1cccc(C[C@@H]2NC(=O)[C@H](CC(=O)O)NC(=O)[C@H](Cc3ccc(OCC(=O)O)cc3)NC(=O)[C@H](CCCNC(=N)N)NC(=O)CSC[C@@H](C(=O)N[C@H](CC(N)=O)C(=O)NCCCCCCCCCCC(=O)O)NC(=O)[C@H](CO)NC(=O)[C@H](C(C)(C)C)NC(=O)[C@H](CC3CCCCC3)NC(=O)[C@H](CCN)NC(=O)[C@@H](CC(C)C)NC(=O)[C@H](CCCN)NC(=O)[C@H](Cc3ccc(OCC(=O)O)cc3)NC(=O)[C@H](Cc3ccc(-c4ccccc4)cc3)NC(=O)[C@H](Cc3ccc(OCC(=O)O)cc3)NC2=O)c1` [Compound 3527] ({CH2CO}-RY(Carboxymethyl)D[Phe(3-Me)]Y(Carboxymethyl)[Bip]Y(Carboxymethyl)[Orn][dL][Dab][Cha][Tle]SC[dN][Aun]-OH; thioether N-14), the pIC50 is 7.29. Turning to `Cc1cccc(C[C@@H]2NC(=O)[C@H](CC(=O)O)NC(=O)[C@H](Cc3ccc(OCC(=O)O)cc3)NC(=O)[C@H](CCCCNC(=N)N)NC(=O)CSC[C@@H](C(=O)N[C@@H](CCN)C(=O)NCCCCCCCCCCC(=O)O)NC(=O)[C@H](C(C)O)NC(=O)[C@H](C(C)C)NC(=O)[C@H](CC3CCCCC3)NC(=O)[C@H](CCN)NC(=O)[C@@H](CC(C)C)NC(=O)[C@H](CCCN)NC(=O)[C@H](CCCNC(=O)C3CC3)NC(=O)[C@H](Cc3ccc(-c4ccccc4)cc3)NC(=O)[C@H](Cc3ccc(O)cc3)NC2=O)c1` (stereo partly drawn) [Compound 3581] ({CH2CO}-[hArg]Y(Carboxymethyl)D[Phe(3-Me)]Y[Bip][Orn](Cyclopropanecarbonyl)[Orn][dL][Dab][Cha]V[Thr(3ξ)]C[Dab][Aun]-OH; thioether N-14), the pIC50 was 7.79.

Consider `Cc1cccc(C[C@@H]2NC(=O)[C@H](CC(=O)O)NC(=O)[C@H](Cc3ccc(OCC(=O)O)cc3)NC(=O)[C@H](Cc3ccncc3)NC(=O)CSC[C@@H](C(=O)N[C@@H](CCN)C(=O)NCCCCCCCCCCC(=O)O)NC(=O)[C@H](CO)NC(=O)[C@H](C(C)(C)O)NC(=O)[C@H](CC3CCCCC3)NC(=O)[C@H](CCN)NC(=O)[C@@H](CC(C)C)NC(=O)[C@H](CCCN)NC(=O)[C@H](Cc3cc(F)c(F)c(F)c3)NC(=O)[C@H](Cc3ccc(-c4ccccc4)cc3)NC(=O)[C@H](Cc3ccc(OCC(=O)O)cc3)NC2=O)c1` [Compound 2203] ({CH2CO}-[4Pal]Y(Carboxymethyl)D[Phe(3-Me)]Y(Carboxymethyl)[Bip][Phe(3,4,5-F3)][Orn][dL][Dab][Cha][Val(3-OH)]SC[Dab][Aun]-OH; thioether N-14), for which the pIC50 was 7.38. Take `Cc1cccc(C[C@@H]2NC(=O)[C@H](CC(=O)O)NC(=O)[C@H](Cc3ccc(C(=O)O)cc3)NC(=O)[C@H](Cc3cccs3)NC(=O)CSC[C@@H](C(=O)N[C@@H](CCN)C(=O)NCCCCCCCCCCC(=O)O)NC(=O)[C@H](CO)NC(=O)[C@H](C(C)(C)O)NC(=O)[C@H](CC3CCCCC3)NC(=O)[C@H](CCN)NC(=O)[C@@H](CC(C)C)NC(=O)[C@H](CCCN)NC(=O)[C@H](Cc3ccc(OCC(=O)O)cc3)NC(=O)[C@H](Cc3ccc(-c4ccccc4)cc3)NC(=O)[C@H](Cc3ccc(OCC(=O)O)cc3)NC2=O)c1` [Compound 2179] ({CH2CO}-[2Thi][Phe(4-COOH)]D[Phe(3-Me)]Y(Carboxymethyl)[Bip]Y(Carboxymethyl)[Orn][dL][Dab][Cha][Val(3-OH)]SC[Dab][Aun]-OH; thioether N-14): the pIC50 was 7.66. The value for `Cc1cccc(C[C@@H]2NC(=O)[C@H](CC(=O)O)NC(=O)[C@H](Cc3ccc(OCC(=O)O)cc3)NC(=O)[C@H](CCN)NC(=O)CSC[C@@H](C(=O)N[C@H](CC(N)=O)C(=O)NCCCCCCCCCCC(=O)O)NC(=O)[C@H](CO)NC(=O)[C@H](C(C)O)NC(=O)[C@H](CC3CCCCC3)NC(=O)[C@H](CCN)NC(=O)[C@@H](CC(C)C)NC(=O)[C@H](CCCN)NC(=O)[C@H](Cc3ccc(OCC(=O)O)cc3)NC(=O)[C@H](Cc3ccc(-c4ccccc4)cc3)NC(=O)[C@H](Cc3ccc(OCC(=O)O)cc3)NC2=O)c1` (stereo partly drawn) [Compound 3660] ({CH2CO}-[Dab]Y(Carboxymethyl)D[Phe(3-Me)]Y(Carboxymethyl)[Bip]Y(Carboxymethyl)[Orn][dL][Dab][Cha][Thr(3ξ)]SC[dN][Aun]-OH; thioether N-14) was 7.17. Next, `Cc1cccc(C[C@@H]2NC(=O)[C@H](CC(=O)O)NC(=O)[C@H](Cc3ccc(OCC(=O)O)cc3)NC(=O)[C@H](CCCNC(N)=O)NC(=O)CSC[C@@H](C(=O)N[C@@H](CCCN)C(=O)NCCCCCCCCCCC(=O)O)NC(=O)[C@H](CO)NC(=O)[C@H](C(C)C)NC(=O)[C@H](CC3CCCCC3)NC(=O)[C@H](CCN)NC(=O)[C@@H](CC(C)C)NC(=O)[C@H](CCCN)NC(=O)[C@H](C(C)C)NC(=O)[C@H](Cc3ccc(-c4ccccc4)cc3)NC(=O)[C@H](C(C)C)NC2=O)c1` [Compound 3049] ({CH2CO}-[Cit]Y(Carboxymethyl)D[Phe(3-Me)]V[Bip]V[Orn][dL][Dab][Cha]VSC[Orn][Aun]-OH; thioether N-14): 7.40. As to `C#CC[C@H](NC(=O)COCCOCCNC(=O)[C@@H]1CSCC(=O)N[C@@H](Cc2ccncc2)C(=O)N[C@@H](Cc2ccc(OCC(=O)O)cc2)C(=O)N[C@@H](CC(=O)O)C(=O)N[C@@H](Cc2c[nH]c3ccccc23)C(=O)N[C@@H](C(C)C)C(=O)N[C@@H](Cc2ccc(-c3ccccc3)cc2)C(=O)N[C@@H]([C@@H](C)CC)C(=O)N[C@@H](CCCN)C(=O)N[C@H](CC(C)C)C(=O)N[C@@H](CCN)C(=O)N[C@@H](CC(C)C)C(=O)N[C@@H](C(C)C)C(=O)N[C@@H]([C@@H](C)O)C(=O)N1)C(=O)N[C@@H](CCCCN)C(=O)NCCCCCCCCCCC(=O)O` [Compound 1214] ({CH2CO}-[4Pal]Y(Carboxymethyl)DWV[Bip]I[Orn][dL][Dab]LVTC[AEEA][Pra]K[Aun]-OH; thioether N-14), the pIC50 was 7.86.

For `CC(C)C[C@H]1NC(=O)[C@H](CCCN)NC(=O)[C@H](C(C)C)NC(=O)[C@H](Cc2ccc(-c3ccccc3)cc2)NC(=O)[C@H](C(C)C)NC(=O)[C@H](Cc2c[nH]c3ccccc23)NC(=O)[C@H](CC(=O)O)NC(=O)[C@H](Cc2ccc(OCC(=O)O)cc2)NC(=O)[C@H](CN)NC(=O)CSC[C@@H](C(=O)NCCOCCOCC(=O)NC(Cc2cnc[nH]2)C(=O)NCCCCCCCCCCC(=O)O)NC(=O)[C@H]([C@@H](C)O)NC(=O)[C@H](C(C)C)NC(=O)[C@H](CC2CCCCC2)NC(=O)[C@H](Cc2cnc[nH]2)NC1=O` (stereo partly drawn) [Compound 1137] ({CH2CO}-[Dap]Y(Carboxymethyl)DWV[Bip]V[Orn][dL]H[Cha]VTC[AEEA][ξH][Aun]-OH; thioether N-14), the pIC50 is 7.73.
